# The source made the active and inactive calls.
# Assays:
# [1] = biological target: Hepatocyte nuclear factor 4-alpha (Homo sapiens, UniProt P41235); assay type: functional, cell-based;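 note: biochemical luminescence-based dose-response counterscreen measuring inhibition of HNF4 dimerization, run alongside a screen for blockers of ABHD5–perilipin-5 interaction; split luciferase complementation of HNF4 fusion proteins in cell lysate measuring dimerization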
# [2] = cytotoxicity in MIN6 insulinoma cells, dose response, cytotoxicity control, cell-based, mouse insulinoma (AID 2122); assay type: functional;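 note: confirmatory high-throughput counterscreen run to flag cytotoxic compounds; mouse MIN-6 beta cells carrying an insulin promoter eGFP reporter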
# [3] = Fluorescence-based cell-based high throughput dose response assay for inhibitors of the interaction of nucleotide-binding oligomerization domain containing 2 (NOD2) and the receptor-interacting serine-threonine kinase 2 (RIPK2).; assay type: functional, Homo sapiens; details: Homo sapiens
# Beta Lactamase = Beta Lactamase (Pseudomonas aeruginosa, UniProt Q932Y6); assay: beta-lactamase reporter inhibitor potency, dose response, artefact control for NOD2-RIPK2 interaction inhibitor project, BLA reporter cells, FRET fluorescence (AID 651552); assay type: functional, cell-based
# INS1 = assay: beta cell apoptosis inhibitors, cytokine rescue, dose response, luminescence, retest (AID 449756); assay type: functional, cell-based; details: Rattus norvegicus;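 note: cell death triggered by IL-1 beta plus TNF-alpha plus IFN-gamma mixture; protective hits raise ATP signal compared with cytokine alone wells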
# [4] = insulin promoter down-regulators in MIN6 cells, imaging, high-content screening, mouse beta cells (AID 1628); assay type: functional
# [5] = biological target: Photoreceptor-specific nuclear receptor (Homo sapiens, UniProt Q9Y5X4); assay type: functional, cell-based;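 note: CHO-S cells with Gal4-NCOR and VP16-NR2E3 two-hybrid luciferase reporter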
# [6] = biological target: T1, Calpain-2 catalytic subunit (Sus scrofa, UniProt P43367); assay: pig calpain II inhibitor potency, dose response, biochemical, fluorogenic peptide substrate (AID 1420); assay type: functional
# T1 sequence (P43367 whole entry): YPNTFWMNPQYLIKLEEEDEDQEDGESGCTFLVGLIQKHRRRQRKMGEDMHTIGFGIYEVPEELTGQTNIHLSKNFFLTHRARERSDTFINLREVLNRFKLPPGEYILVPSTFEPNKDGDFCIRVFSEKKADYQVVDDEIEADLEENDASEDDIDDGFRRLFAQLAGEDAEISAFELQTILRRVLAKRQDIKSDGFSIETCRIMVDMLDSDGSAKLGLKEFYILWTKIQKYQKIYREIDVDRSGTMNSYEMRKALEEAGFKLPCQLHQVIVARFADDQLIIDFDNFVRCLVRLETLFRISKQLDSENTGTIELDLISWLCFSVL
# [7] = biological target: T2, Low molecular weight phosphotyrosine protein phosphatase (Homo sapiens, UniProt P24666); assay type: functional; details: read-out: IC50_Mean
# T2 sequence (P24666 whole entry): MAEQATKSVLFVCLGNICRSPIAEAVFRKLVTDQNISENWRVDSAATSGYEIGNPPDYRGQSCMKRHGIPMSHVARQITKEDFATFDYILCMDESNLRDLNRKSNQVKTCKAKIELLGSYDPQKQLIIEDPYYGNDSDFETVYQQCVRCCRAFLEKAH
# [8] = biological target: T2, Low molecular weight phosphotyrosine protein phosphatase; assay type: functional; details: read-out: IC50_Mean; remark: listed apart in the source
# [9] = biological target: T3, High affinity choline transporter 1 (Homo sapiens, UniProt Q9GZV3); assay: CHT inhibitors, dose response, cell-based, 10-point CRC, membrane potential dye (AID 588401); assay type: functional;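 note: membrane potential dye fluorescence of choline-evoked depolarization via CHT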
# T3 sequence (Q9GZV3 whole entry): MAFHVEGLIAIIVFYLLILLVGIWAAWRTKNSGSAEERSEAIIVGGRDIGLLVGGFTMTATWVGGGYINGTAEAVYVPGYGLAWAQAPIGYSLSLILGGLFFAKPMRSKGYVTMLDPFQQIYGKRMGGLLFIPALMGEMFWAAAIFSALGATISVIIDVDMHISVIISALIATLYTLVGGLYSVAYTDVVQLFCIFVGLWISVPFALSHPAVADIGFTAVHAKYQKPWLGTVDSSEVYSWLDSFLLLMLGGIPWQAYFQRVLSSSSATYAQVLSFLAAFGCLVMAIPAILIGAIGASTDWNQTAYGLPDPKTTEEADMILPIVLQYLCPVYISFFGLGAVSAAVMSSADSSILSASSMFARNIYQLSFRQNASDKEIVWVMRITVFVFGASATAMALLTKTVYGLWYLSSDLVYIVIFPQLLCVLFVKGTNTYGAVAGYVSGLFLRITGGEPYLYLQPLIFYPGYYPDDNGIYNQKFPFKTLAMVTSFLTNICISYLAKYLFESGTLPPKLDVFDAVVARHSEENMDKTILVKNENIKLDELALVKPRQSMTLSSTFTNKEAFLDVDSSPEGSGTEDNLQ
# [10] = biological target: T4, Short transient receptor potential channel 4 (Mus musculus, UniProt Q9QUQ5); assay: mouse TRPC4 channel inhibitors, dose response, cell-based, HEK293 TRPC4/mu-opioid, Fluo-4 calcium (AID 434942); assay type: functional;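 note: potency of inhibitors blocking the TRPC4 calcium response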
# T4 sequence (Q9QUQ5 whole entry): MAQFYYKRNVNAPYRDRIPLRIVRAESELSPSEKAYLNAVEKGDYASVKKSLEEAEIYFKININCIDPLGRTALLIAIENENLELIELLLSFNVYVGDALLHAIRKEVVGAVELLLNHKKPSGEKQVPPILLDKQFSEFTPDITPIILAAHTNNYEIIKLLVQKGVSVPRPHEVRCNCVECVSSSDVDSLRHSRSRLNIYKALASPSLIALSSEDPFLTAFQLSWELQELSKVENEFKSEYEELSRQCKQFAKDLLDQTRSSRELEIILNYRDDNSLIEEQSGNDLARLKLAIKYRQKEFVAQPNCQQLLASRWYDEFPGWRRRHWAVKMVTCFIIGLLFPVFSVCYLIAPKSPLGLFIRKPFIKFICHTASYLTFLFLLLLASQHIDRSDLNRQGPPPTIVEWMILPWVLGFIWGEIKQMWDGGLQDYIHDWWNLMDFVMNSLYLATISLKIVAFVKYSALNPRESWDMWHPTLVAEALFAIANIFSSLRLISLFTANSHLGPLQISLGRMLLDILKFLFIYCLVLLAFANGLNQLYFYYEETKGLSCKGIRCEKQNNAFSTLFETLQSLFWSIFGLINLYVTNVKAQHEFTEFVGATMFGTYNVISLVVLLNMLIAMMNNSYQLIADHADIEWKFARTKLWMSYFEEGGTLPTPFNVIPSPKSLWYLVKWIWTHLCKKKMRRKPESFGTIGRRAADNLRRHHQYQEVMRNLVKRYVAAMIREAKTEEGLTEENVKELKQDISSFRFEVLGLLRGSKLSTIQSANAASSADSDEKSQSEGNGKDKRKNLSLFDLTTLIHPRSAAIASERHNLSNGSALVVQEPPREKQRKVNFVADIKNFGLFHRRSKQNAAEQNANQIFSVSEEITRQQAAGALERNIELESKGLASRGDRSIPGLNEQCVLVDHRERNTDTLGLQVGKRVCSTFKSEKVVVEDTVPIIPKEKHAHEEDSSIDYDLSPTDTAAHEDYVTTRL
# [11] = biological target: T3, High affinity choline transporter 1; assay: CHT inhibitors, dose response, cell-based, 5-point CRC, membrane potential dye (AID 504840); assay type: functional
# [12] = biological target: Ras and Rab interactor 1/Tyrosine-protein kinase ABL1 (Homo sapiens, UniProt P00519+Q13671); assay type: functional;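 note: biochemical TR-FRET dose-response test measuring inhibition of binding between Rin1 and Abl proteins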
# Fatty acid synthase [13] = biological target: T5, Fatty acid synthase (Homo sapiens, UniProt P49327); assay: FAS thioesterase domain inhibitors, dose response, biochemical, kinetic fluorescence intensity (AID 624326); assay type: functional;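 note: rate of fluorescence rise from hydrolysis of a fluorogenic O-methyl fluorescein ester substrate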
# Fatty acid synthase [14] = biological target: T5, Fatty acid synthase; assay: FAS thioesterase domain inhibitors, dose response, biochemical, endpoint fluorescence intensity, uHTS hits (AID 624327); assay type: functional;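 note: fluorescence from hydrolysis of an O-methyl fluorescein acyl ester substrate by the enzyme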
# Beta Lactamase, sequence (Q932Y6 whole entry): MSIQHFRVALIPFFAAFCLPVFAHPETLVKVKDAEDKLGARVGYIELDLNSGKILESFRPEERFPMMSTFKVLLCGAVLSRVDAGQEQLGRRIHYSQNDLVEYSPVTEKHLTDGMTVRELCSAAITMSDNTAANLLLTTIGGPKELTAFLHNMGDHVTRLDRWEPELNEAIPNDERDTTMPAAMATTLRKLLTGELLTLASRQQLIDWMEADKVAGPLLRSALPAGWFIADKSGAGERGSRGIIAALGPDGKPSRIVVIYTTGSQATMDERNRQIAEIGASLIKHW
# Photoreceptor-specific nuclear receptor, sequence (Q9Y5X4 whole entry, the tested form may be a part): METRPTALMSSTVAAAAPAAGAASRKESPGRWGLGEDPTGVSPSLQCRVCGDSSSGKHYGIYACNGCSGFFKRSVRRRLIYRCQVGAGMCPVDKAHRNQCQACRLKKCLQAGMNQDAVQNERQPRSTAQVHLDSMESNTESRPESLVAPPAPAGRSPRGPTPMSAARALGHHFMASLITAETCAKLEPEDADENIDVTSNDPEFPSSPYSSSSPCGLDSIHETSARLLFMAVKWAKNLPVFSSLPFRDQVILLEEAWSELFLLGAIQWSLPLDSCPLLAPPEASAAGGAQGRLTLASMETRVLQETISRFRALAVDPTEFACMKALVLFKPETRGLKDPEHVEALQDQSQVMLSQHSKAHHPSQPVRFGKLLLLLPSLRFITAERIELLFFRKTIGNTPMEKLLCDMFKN
# T5 sequence (P49327 whole entry, the tested form may be a part): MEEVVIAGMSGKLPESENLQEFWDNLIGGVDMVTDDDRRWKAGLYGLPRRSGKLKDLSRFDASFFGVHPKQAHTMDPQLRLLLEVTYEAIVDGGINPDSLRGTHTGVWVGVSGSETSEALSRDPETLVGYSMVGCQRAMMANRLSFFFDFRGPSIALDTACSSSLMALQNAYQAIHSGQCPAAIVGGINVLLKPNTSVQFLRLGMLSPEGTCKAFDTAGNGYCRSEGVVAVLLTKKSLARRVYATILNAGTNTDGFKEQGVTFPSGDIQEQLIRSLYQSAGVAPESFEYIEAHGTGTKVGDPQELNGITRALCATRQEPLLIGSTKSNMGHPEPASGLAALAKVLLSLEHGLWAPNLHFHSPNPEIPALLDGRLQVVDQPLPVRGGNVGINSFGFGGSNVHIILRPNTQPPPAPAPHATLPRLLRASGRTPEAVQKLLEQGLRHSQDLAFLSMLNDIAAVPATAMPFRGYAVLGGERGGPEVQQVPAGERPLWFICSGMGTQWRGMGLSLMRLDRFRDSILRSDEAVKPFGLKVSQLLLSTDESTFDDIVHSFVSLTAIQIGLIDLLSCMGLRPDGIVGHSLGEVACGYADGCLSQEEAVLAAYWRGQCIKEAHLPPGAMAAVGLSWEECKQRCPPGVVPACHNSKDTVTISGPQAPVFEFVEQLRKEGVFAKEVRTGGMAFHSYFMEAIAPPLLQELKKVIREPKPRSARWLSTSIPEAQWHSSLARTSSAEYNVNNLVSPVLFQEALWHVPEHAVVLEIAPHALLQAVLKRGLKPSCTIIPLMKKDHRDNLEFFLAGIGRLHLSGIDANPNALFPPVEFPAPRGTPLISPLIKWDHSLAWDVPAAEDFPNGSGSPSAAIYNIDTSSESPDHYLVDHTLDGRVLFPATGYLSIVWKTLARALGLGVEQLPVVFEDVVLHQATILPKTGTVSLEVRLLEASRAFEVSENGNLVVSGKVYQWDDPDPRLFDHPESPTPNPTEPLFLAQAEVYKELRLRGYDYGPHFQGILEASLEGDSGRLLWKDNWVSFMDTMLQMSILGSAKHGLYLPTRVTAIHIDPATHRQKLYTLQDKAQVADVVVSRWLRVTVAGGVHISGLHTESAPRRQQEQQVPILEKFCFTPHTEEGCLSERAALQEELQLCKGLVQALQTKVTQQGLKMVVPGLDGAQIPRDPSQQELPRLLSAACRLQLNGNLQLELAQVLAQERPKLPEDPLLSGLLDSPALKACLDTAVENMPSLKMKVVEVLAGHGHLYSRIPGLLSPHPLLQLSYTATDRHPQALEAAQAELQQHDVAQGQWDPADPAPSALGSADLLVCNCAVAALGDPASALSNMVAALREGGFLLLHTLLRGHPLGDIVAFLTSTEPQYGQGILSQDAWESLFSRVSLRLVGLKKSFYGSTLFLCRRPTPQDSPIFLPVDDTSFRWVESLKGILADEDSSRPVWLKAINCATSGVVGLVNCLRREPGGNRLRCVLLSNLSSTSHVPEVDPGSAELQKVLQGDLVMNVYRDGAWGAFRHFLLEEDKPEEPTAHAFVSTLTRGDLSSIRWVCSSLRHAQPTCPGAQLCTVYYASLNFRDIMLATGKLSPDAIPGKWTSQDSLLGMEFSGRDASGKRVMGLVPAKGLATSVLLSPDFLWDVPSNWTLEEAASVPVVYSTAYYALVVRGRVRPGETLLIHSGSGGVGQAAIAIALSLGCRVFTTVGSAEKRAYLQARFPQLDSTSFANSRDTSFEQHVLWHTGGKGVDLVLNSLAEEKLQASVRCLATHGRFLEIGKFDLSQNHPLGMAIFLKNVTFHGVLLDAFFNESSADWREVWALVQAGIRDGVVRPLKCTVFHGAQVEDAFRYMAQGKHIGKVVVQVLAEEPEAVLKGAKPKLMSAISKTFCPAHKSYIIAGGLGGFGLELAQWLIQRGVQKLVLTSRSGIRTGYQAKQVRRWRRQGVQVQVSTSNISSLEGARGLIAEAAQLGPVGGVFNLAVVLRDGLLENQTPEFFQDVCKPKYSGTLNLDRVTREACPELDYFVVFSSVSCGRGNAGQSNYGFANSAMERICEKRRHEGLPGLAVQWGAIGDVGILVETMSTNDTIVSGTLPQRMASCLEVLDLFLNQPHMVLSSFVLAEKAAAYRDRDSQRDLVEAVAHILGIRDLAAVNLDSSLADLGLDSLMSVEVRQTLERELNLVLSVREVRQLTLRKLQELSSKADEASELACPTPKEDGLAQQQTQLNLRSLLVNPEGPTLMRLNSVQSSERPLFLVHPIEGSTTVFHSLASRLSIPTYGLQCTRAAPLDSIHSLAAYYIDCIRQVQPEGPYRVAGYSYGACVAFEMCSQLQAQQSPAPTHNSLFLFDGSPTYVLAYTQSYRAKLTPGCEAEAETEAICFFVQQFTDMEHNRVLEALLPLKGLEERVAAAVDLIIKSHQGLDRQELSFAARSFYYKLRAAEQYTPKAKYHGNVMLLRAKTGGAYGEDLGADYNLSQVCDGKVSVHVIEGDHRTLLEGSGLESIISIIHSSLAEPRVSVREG
# Ras and Rab interactor 1/Tyrosine-protein kinase ABL1, sequence (P00519 whole entry, the tested form may be a part): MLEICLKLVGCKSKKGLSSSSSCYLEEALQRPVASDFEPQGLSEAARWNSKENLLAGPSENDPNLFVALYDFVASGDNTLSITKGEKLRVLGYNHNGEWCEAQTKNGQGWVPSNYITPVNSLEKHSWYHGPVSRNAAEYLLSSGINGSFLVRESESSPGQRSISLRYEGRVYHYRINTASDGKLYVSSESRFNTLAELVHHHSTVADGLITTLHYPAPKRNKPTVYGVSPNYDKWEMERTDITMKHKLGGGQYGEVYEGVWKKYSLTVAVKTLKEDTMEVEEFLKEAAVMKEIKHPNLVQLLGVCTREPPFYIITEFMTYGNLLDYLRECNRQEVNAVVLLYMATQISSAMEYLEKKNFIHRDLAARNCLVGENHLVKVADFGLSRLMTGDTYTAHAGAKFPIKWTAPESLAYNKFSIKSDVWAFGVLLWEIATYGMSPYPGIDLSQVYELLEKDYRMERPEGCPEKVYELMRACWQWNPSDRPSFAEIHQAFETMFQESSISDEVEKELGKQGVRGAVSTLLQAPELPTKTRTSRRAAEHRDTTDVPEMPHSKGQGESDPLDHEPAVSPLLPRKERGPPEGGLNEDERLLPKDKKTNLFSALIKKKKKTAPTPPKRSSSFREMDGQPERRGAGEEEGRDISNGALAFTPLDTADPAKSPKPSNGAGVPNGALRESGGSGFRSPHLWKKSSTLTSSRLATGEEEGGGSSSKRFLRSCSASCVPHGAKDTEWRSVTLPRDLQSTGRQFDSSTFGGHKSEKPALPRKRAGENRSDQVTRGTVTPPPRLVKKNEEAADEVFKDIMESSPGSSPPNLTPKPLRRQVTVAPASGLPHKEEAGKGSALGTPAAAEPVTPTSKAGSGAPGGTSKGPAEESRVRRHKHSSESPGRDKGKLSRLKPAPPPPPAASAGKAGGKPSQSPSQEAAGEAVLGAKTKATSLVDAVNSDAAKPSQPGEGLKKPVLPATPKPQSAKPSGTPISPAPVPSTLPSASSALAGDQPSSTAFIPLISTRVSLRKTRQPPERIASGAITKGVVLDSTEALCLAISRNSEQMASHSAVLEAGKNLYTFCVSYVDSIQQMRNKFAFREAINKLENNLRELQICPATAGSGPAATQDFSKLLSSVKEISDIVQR
# Ras and Rab interactor 1/Tyrosine-protein kinase ABL1, sequence (Q13671 whole entry, the tested form may be a part): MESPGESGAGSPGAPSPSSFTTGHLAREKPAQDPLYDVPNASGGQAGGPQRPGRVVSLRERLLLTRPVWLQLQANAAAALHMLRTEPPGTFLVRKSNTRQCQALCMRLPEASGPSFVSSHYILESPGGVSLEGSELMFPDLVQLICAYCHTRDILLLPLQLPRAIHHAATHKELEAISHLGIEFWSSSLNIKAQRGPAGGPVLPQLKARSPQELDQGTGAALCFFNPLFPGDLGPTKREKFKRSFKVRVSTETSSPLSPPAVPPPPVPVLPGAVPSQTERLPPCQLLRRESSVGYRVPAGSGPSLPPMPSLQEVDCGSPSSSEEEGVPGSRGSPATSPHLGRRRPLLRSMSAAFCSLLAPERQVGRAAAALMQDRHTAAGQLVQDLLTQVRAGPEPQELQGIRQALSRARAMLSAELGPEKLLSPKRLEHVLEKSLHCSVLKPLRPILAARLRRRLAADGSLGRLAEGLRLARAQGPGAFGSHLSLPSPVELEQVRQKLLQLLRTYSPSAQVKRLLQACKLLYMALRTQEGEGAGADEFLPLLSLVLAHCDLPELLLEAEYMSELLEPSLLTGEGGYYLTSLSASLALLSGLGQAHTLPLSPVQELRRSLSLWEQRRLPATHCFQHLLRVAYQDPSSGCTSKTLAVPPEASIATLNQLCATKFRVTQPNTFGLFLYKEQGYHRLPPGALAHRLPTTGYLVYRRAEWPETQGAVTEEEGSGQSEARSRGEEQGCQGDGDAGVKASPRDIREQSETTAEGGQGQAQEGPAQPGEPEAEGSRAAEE
compound,measurement,setting,value
CC(C)(C)NC(=O)C(C1CC1)n1c(=O)c(-c2ccco2)nc2ccccc21 (stereo unspecified),IC50,[1],1.72 µM (active)
Cc1cc(N2CCN(C)CC2)ccc1NC(=O)c1c2c(nc3ccccc13)CCN(Cc1ccccc1)C2,IC50,[2],1.05 µM (active)
same,IC50,[3],11 µM (inactive)
same,IC50,Beta Lactamase,12.3 µM (inactive)
same,AC50,INS1,4.71 µM (active)
same,IC50,[4],1.37 µM (active)
CCCCCc1c(-c2ccc(OC)c(OC)c2)ncn1CCc1ccccc1OC,IC50,[5],7.43 µM (active)
O=c1c(Cl)c(N2CCN(c3ccc(F)cc3)CC2)cnn1C12CC3CC(CC(C3)C1)C2,IC50,[5],1.93 µM (active)
same,IC50,[6],> 50 µM (not active)
CN(C)c1nc(N)nc(/C(C#N)=C/C2CC3C=CC2C3)n1 (stereo unspecified),IC50,[7],10.6 µM (active)
same,IC50,[8],25.2 µM (inactive)
COc1cccc(Nc2c(Nc3cccc(OC)c3)c(=O)c2=O)c1,IC50,[7],18.4 µM (active)
same,IC50,[8],10.4 µM (active)
CC1CCCCN1CCCNC(=O)c1nn(C)c2c1CSc1ccccc1-2 (stereo unspecified),IC50,[9],10.6 µM (active)
same,EC50,[10],4.22 µM (active)
same,IC50,[11],5.6 µM (active)
COc1ccc(CCNC(=O)CSc2nc(C)nc3c2c(=O)n(C)c(=O)n3C)cc1OC,IC50,[12],13.9 µM (inactive)
CCOC(=O)[C@]12Cc3cc(Cl)ccc3[C@H]1N(C1CCCCC1)C(=O)c1ccccc12,IC50,Fatty acid synthase [13],4.57 µM (active)
same,IC50,[3],1.45 µM (active)
same,IC50,Beta Lactamase,19.9 µM (inactive)
same,IC50,Fatty acid synthase [14],6.4 µM (active)
